This note sets out measurements from US20150344540A1, “NOVEL GLP-1 RECEPTOR AGONISTS WITH CHOLESTEROL EFFLUX ACTIVITY” (NOVO NORDISK A/S, priority 2012, published 2015).

Series [1] deals with Mouse monocyte/macrophage cell line, RAW 264.7. Nature of the series: Cholesterol efflux assay (3H-cholesterol, macrophage cell line). Type of series: cell-based. Conditions: RAW 264.7, 4 hrs incubation, 0.1% human serum albumin, ABCA1-mediated efflux.
The next series addresses human GLP-1 receptor (Homo sapiens, UniProt P43220). Nature of the series: Functional GLP-1 receptor assay, in vitro potency (CRE luciferase; whole cells). Conditions: GLP1R CRE luc 1% HSA EC50 Mean Value, BHK cells expressing human GLP-1 receptor, 1% HSA. Type of series: cell-based.
A short description of the next series: pH solubility assay. Also on record: unit not given here. Type of series: physicochemical. Conditions: two days at 25° C. How it is done: One approach is to make a pH gradient from a buffer mix consisting of two buffers (e.g. citrate 100 mM/phosphate 200 mM), spike with a concentrated sample stock, and then leave the samples for 2 days at ambient temperature. […] Samples were incubated for two days at 25° C., centrifuged at 4700 g, and the concentration measured in the supernatant on a Nanodrop UV spectrophotometer (Thermo Fischer Scientific, Waltham, Mass.) using a theoretical extinction coefficient of 6,990 cm^−1M^−1.

The nature of series [2]: Mechanical stress experiment, Thioflavin T fibrillation assay. Type of series: physicochemical. Conditions: 45 hour mechanical stress, 37° C., samples A-D. As for the experimental part: In order to determine the physical stability of peptides in solution an accelerated mechanical stress assay was performed. Samples were prepared just before starting the assay. Samples may be prepared in the pH range 3-9 and with peptide concentrations in the range 0-20 mM. Samples may contain buffers such as phosphate, acetate, Tris. Samples may contain antimicrobial preservatives such as phenol or m-cresol.
The pH of the sample was adjusted to the desired value using NaOH and HCl. Thioflavin T was added to the samples from a stock solution in H2O to a final concentration of 5 μM.
Aliquots of each sample were transferred to a 96 well microtiter plate (Packard OptiPlate™-96, white polystyrene) with 200 μL in each well. For each sample data may be recorded for one well or for two or more replicas (two or more wells). […]
Incubation at a selected temperature, mechanical stress and measurement of Thioflavin T fluorescence was performed using a Fluoroskan Ascent FL fluorescence platereader (Thermo Labsystems). […] Fluorescence measurement was performed using excitation through a 444 nm filter and measurement of emission through a 485 nm filter. The fluorescence was measured every 20 minutes during the experiment.
The fluorescence from Thioflavin T was plotted against duration of mechanical stress. A substantial increase in fluorescence from Thioflavin T indicates amyloid fibril formation. […]

A further series deals with db/db mice. Nature of the series: Antidiabetic effect (acute blood glucose) in db/db mice. It counts as in vivo, male db/db (C57B1/KS db/db) mice. As for the experimental part: The mice, 48 male db/db (C57B1/KS db/db), were purchased from Taconic, arriving at Novo Nordisk A/S Animal Unit at 6 weeks of age. The mice were housed according to standard rules in the animal unit and given free access to standard chow and tap water. The animals were kept at a room temperature of 22-24° C. and housed in groups of 5 mice, with free access to food and water, according to Animal Unit's SOP (Housing of experimental animals at Novo Nordisk A/S).
Test compound was administered as a single dose s.c.
Blood glucose was measured in a 5 μl full blood sample taken from the tip of the tail by puncturing the capillary bed with a lancet, using a 5 μl heparinised capillary tube to sample the blood. The capillary tube was then shaken into 2500 μl glucose/lactate System Solution and measured in a Biosen S_Line, autoanalyser (EKF Diagnostics GmbH, Magdeburg, Germany) according to the manufacturer's instructions. The samples were kept at room temperature until analysis. If analysis was postponed, samples were kept at 4° C. for a maximum of 24 h. The blood samples were taken at the following time points: 0, 30, 60, 120, 180 and 240 minutes and again at 24 h. After the 24 h sample, the blood was sampled from cheek or eye blood for drug exposure measurement in EDTA coated tubes. 50 μl plasma was pipetted from each animal for analysis in an in house immunoassay developed for GLP-1 analogues.

Series [3] can be described thus: Pharmacokinetics in mini-pigs after i.v. administration. Conditions: female, Göttingen, minipig, plasma, iv, 5 nmol/kg. A digest of the protocol:
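Female Göttingen mini-pigs (15-20 kg, N=3) received 5 nmol/kg i.v. via central venous catheter. Plasma levels of N-terminally intact peptide measured by LOCI immunoassay with N-terminal and mid-/C-terminal antibodies; non-compartmental analysis of individual profiles.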

Chain of human GLP-1 receptor (P43220 24-463): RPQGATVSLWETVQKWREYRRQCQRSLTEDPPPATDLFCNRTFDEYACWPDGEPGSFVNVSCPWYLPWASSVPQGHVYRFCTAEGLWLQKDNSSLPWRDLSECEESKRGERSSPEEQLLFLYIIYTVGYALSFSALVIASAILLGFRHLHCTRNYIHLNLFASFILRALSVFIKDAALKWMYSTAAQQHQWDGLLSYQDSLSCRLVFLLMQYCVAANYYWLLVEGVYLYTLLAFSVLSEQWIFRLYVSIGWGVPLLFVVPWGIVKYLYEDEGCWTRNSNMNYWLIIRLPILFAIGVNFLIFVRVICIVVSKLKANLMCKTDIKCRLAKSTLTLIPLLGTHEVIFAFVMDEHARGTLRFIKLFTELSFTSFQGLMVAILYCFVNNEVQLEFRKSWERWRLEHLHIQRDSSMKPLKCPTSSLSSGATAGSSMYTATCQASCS

As to `CC[C@H](C)[C@H](NC(=O)[C@H](Cc1ccccc1)NC(=O)[C@H](CCC(=O)O)NC(=O)[C@H](CCCCN)NC(=O)[C@@H](NC(=O)[C@H](C)NC(=O)[C@H](CCC(=O)O)NC(=O)CNC(=O)[C@H](CCC(=O)O)NC(=O)[C@H](CC(C)C)NC(=O)[C@H](Cc1ccc(O)cc1)NC(=O)[C@H](CO)NC(=O)[C@H](CO)NC(=O)[C@@H](NC(=O)[C@H](CC(=O)O)NC(=O)[C@H](CO)NC(=O)[C@@H](NC(=O)[C@H](Cc1ccccc1)NC(=O)[C@@H](NC(=O)CNC(=O)[C@H](CCC(=O)O)NC(=O)C(C)(C)NC(=O)[C@@H](N)Cc1c[nH]cn1)[C@@H](C)O)[C@@H](C)O)C(C)C)C(C)C)C(=O)N[C@@H](C)C(=O)N[C@@H](Cc1c[nH]c2ccccc12)C(=O)N[C@@H](CC(C)C)C(=O)N[C@H](C(=O)N[C@@H](CCC(=O)O)C(=O)N[C@@H](CCCCN)C(=O)NC(C)(C)C(=O)N[C@@H](CCCCN)C(=O)N[C@@H](CCC(=O)O)C(=O)N[C@@H](Cc1ccccc1)C(=O)N[C@@H](CC(C)C)C(N)=O)C(C)C` [Compound 1, [Aib8,Glu23,Val25,Glu34,Lys35,Aib36,Lys37]-GLP-1-(7-37)-peptidyl-Glu-Phe-Leu amide], in series [1], the “4 h Cholesterol Efflux Emax” value is recorded as 100%. The same compound yielded a concentration giving a half-maximal response (EC50) at human GLP-1 receptor of 0.111 nM. For the same compound, the Conc. supernatant in the series “pH solubility assay” (pH meas. 4.15, citrate 100 mM/phosphate 200 mM) turned out to be 0.009; in the series “pH solubility assay” (pH meas. 4.50, citrate 100 mM/phosphate 200 mM), 0.002; in “pH solubility assay” (pH meas. 4.95, citrate 100 mM/phosphate 200 mM) it was 0.005; in “pH solubility assay” (pH meas. 5.29, citrate 100 mM/phosphate 200 mM), 0.021; in “pH solubility assay” (pH meas. 5.75, citrate 100 mM/phosphate 200 mM) it was 0.270; in “pH solubility assay” (pH meas. 6.10, citrate 100 mM/phosphate 200 mM), 0.228. Also, the Conc. supernatant amounted to 0.234 in “pH solubility assay” (pH meas. 6.42, citrate 100 mM/phosphate 200 mM); 0.249 in the series “pH solubility assay” (pH meas. 6.76, citrate 100 mM/phosphate 200 mM); 0.233 in “pH solubility assay” (pH meas. 7.21, citrate 100 mM/phosphate 200 mM); 0.244 in “pH solubility assay” (pH meas. 7.65, citrate 100 mM/phosphate 200 mM); 0.254 in “pH solubility assay” (pH meas. 8.29, citrate 100 mM/phosphate 200 mM); 0.247 in “pH solubility assay” (pH meas. 8.65, phosphate 200 mM only). The “fibril formation (Thioflavin T fluorescence)” value in series [2] is recorded as “did not show signs of fibril formation”. Moreover, the duration of action entry in the series with db/db mice (single s.c. dose) is given as “at least 24 h”. Further, in the series with db/db mice (single s.c. dose 10, 30, 100 and 300 nmol/kg), the “acute effect on blood glucose” value is on record as “lowered blood glucose in a dose-dependent manner”. Also, in the series with db/db mice (single s.c. dose, FIG. 1B), the “Plasma concentration 24 hours after dosing” value is recorded as “still very high”. The C0 in series [3] is 57.2 nM. Further, in series [3], the Vd is 0.16 L/kg. In series [3], the clearance is 3.3 mL/h/kg. The half-life in series [3] (T1/2, mini-pigs) is 2020 min; in series [3] (T1/2 Mean Value, Göttingen mini-pigs, N=3), 2020 min.

The term EC50 denotes the concentration at which the effect is half-maximal. As usually defined, the Vd is the apparent volume that relates the amount in the body to the concentration in plasma or blood. Broadly, the clearance is the rate of elimination divided by the concentration. In general, half-life refers to the time in which the quantity being followed falls by half.
